Test results published in patent US20060223814A1, “Nk-2 antagonist basic linear compounds and formulations containing them” (priority 2003, published 2006).
One block for each compound: values may come before it.

Target: T1, human NK-2 receptor (Homo sapiens, UniProt P21452)
T1 construct: expressed in transfected cells; host or cells: Chinese hamster ovary (CHO) cells, membranes
T1 sequence (P21452 1-398): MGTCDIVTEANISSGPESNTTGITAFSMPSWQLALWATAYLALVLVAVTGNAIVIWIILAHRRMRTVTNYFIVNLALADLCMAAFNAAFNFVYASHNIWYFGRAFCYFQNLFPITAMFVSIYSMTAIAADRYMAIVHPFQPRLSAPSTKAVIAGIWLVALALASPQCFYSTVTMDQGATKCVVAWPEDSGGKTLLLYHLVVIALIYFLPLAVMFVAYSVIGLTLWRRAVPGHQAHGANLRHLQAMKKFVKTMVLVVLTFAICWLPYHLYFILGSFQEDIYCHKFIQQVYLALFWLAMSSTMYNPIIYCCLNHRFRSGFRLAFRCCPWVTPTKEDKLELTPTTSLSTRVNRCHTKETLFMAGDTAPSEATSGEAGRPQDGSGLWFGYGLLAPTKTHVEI
Test: Binding test on membranes of CHO cells transfected with the human ileum NK-2 receptor, radioligand NKA in competition
Settings: CHO cell membranes, radioligand NKA 100 pM, incubation 30 min., 20° C.; for Ki: read-out: pKi (affinity to the human NK-2 receptor) (converted)
Experimental: Assessment of the antagonist activity on NK-2 receptors was performed with binding and functional tests according to prior descriptions in the literature for NK-2 antagonists.
In particular, affinity of the compounds for the human NK-2 receptor was assessed in a binding test using membranes of Chinese hamster ovary (CHO) cells, transfected with the NK-2 receptor of human ileum and the radioligand ['251]NKA (Amersham, aspecific activity 2000 Ci/mmol) at a concentration of 100 pM in competition studies. The substances under examination were tested in a concentration range from 0.01 nM to 10 mM. At the end of incubation (30 min., 20° C.) the samples were filtered and the radioactivity was determined using a gamma-counter.
The data in table 1 were obtained for some compounds of general formula (I) and concern the values of affinity to the human NK-2 receptor: […]

Compound: O=C(NC1(C(=O)N[C@@H](CCCN2CCC(Cc3ccccc3)CC2)Cc2ccccc2)CCCC1)c1cc2ccccc2s1 [Example 50, (S) Benzo[b]thiophene-2-carboxylic acid {1-[1-benzyl-4-(4-benzyl-piperidin-1-yl)-butylcarbamoyl]-cyclopentyl}-amide]
Ki: 0.126 nM

Compound: Cc1ccc2cc(C(=O)NC3(C(=O)N[C@@H](CCCN4CCN(C(=O)C5CCOCC5)CC4)Cc4ccccc4)CCCC3)sc2c1 [Example 55, (S) 6-Methyl-benzo[b]thiophene-2-carboxylic acid (1-{1-benzyl-4-[4-(tetrahydro-pyran-4-carbonyl)-piperazin-1-yl]-butylcarbamoyl}-cyclopentyl)-amide]
Ki: 0.1 nM

Compound: Cc1ccc2cc(C(=O)NC3(C(=O)N[C@@H](CCCC4CCN(CC5CCOCC5)CC4)Cc4ccccc4)CCCC3)sc2c1 [Example 58, (S) 6-Methyl-benzo[b]thiophene-2-carboxylic acid (1-{1-benzyl-4-[1-(tetrahydro-pyran-4-ylmethyl)-piperidin-4-yl]-butylcarbamoyl}-cyclopentyl)-amide]
Ki: 0.126 nM

Compound: Cc1ccc2cc(C(=O)NC3(C(=O)N[C@@H](COCCC4CCN(CC5CCOCC5)CC4)Cc4ccccc4)CCCC3)sc2c1 [Example 62]
Ki: 0.501 nM

Compound: (S) 6-Methyl-benzo[b]thiophene-2-carboxylic acid (1-{1-benzyl-4-[4-(2-hydroxy-ethyl)-piperidin-1-yl]-4-oxo-butylcarbamoyl)-cyclopentyl)-amide [Example 53]
pKi (affinity to the human NK-2 receptor): 8.7

Other lines, results leading:

Ki: 0.631 nM
Compound: CN(C)CCCNC(=O)C=C[C@@H](Cc1ccccc1)NC(=O)C1(NC(=O)c2cc3ccccc3s2)CCCC1 [Example 46, (R) Benzo[b]thiophene-2-carboxylic acid {1-[1-benzyl-3-(3-dimethylamino-propylcarbamoyl)-allylcarbamoyl]-cyclopentyl)-amide]

Ki: 0.0794 nM
Compound: Cc1ccc2cc(C(=O)NC3(C(=O)N[C@@H](CCC(=O)N4CCN(CC5CCOCC5)CC4)Cc4ccccc4)CCCC3)sc2c1 [Example 51]

Ki: 0.0794 nM
Compound: Cc1ccc2cc(C(=O)NC3(C(=O)N[C@@H](CCC(=O)N4CCN(C5CCOCC5)CC4)Cc4ccccc4)CCCC3)sc2c1 [Example 52, (S) 6-Methyl-benzo[b]thiophene-2-carboxylic acid (1-{1-benzyl-4-oxo-4-[4-(tetrahydro-pyran-4-yl)-piperazin-1-yl]-butylcarbamoyl}-cyclopentyl)amide]

Ki: 0.0501 nM
Compound: Cc1ccc2cc(C(=O)NC3(C(=O)N[C@@H](CCCN4CCN(CC5CCOCC5)CC4)Cc4ccccc4)CCCC3)sc2c1 [Example 54, (S) 6-Methyl-benzo[b]thiophene-2-carboxylic acid (1-{1-benzyl-4-[4-(tetrahydro-pyran-4-ylmethyl)-piperazin-1-yl]-butylcarbamoyl}-cyclopentyl)-amide]
